Source: patent US20210323950A1, “HERBICIDALLY ACTIVE BICYCLIC BENZOYLPYRAZOLES” (Bayer Aktiengesellschaft, priority 2018, published 2021)

Test system: Cyperus esculentus (CYPES)
Assay: Pre-emergence herbicidal action against CYPES
Assay type: in vivo
Settings: 320 g/ha, scored visually after about 3 weeks vs untreated controls
Text: CYPES: Cyperus esculentus 1. Pre-Emergence Herbicidal Action and Crop Plant Compatibility Seeds of monocotyledonous and dicotyledonous weed plants and crop plants are placed in plastic or organic planting pots and covered with soil. The compounds of the invention, formulated in the form of wettable powders (WP) or as emulsion concentrates (EC), are then applied onto the surface of the covering soil as aqueous suspension or emulsion with addition of 0.5% additive at a water application rate of […] (converted). After the treatment, the pots are placed in a greenhouse and kept under good growth conditions for the trial plants. After about 3 weeks, the effect of the preparations is scored visually in comparison with untreated controls as percentages. The tables below show the herbicidal activity of numerous compounds according to the invention against important harmful plants. For example, 100% activity=the plants have died, 0% activity=like control plants.

Cn1ncc(C(=O)c2ccc(C(F)(F)F)c3c2OC[S+]3[O-])c1O (stereo not shown) [Example 1-28]
Pre-emergence action against CYPES: 90%
